Results: patent US9340575B2, “Agonists and antagonists of the urotensinergic system” (INSTITUT NATIONAL DE LA RECHERCHE SCIENTIFIQUE, priority 2011, dated 2016)
Marks after values point to notes of the source that are not given here. Square brackets hold non-standard residues; d marks the D form. Peptide text beside a SMILES is read from it. pGlu = O=C1CC[CH](C(=O)O)N1

Assays:
rat thoracic aorta rings [1] = test: Effect on ET-1-induced contraction of rat aortic ring; assay type: cell-based; settings: without [Bip^4]URP
Procedure: (§1) Male rats (Sprague-Dawley, 250-300 g) were killed by CO2 asphyxiation. The thoracic aorta was then cleared of surrounding tissues and excised from aortic arch to the diaphragm. From each vessel, conjunctive tissues were removed and the clean vessel was cut into 4 mm rings. The endothelium was removed by gently rubbing the vessel's intimal surface. All preparations were placed in 5 ml organ baths filled with oxygenated normal Krebs-Henselheit solution. Contractile responses to 40 mM KCl were used as control at the beginning and at the end of each experiment. Agonistic activity was measured by increasing the concentration of the peptide in the organ chamber (3×10^−11-3×10^−6 M). For antagonist behaviour, thoracic aortic rings were first exposed to URP derivative over a period of 15 min, and then cumulative concentration-response curves to hUII, URP or ET-1 (10^−10-3×10^−6 M) were constructed. The amplitude of the contraction induced by each concentration of peptide was expressed as a percentage of the KCl-induced contraction. Finally, the ability of the antagonist to reverse the hUII-induced contraction was also evaluated. Vessels were pre-contracted with 4 nM hUII (pre-determined EC80) and after the maximum contraction was attained, contractile tone was reversed by adding increasing log unit concentrations of URP derivative.

anaesthetized rats = test: Hemodynamic assessment (arterial blood pressure) in anaesthetized rats; assay type: in vivo, rat
Procedure: Male Sprague-Dawley rats, weighing 350-400 g, were anaesthetized by isoflurane inhalation delivered in 100% oxygen (1 l/min) from an Ohmeda Tec 4 anaesthetic vaporizer (Somatechnology, Inc., Bloomfield, Conn., USA). Anaesthesia was maintained by mask inhalation of isoflurane vaporized at concentrations of up to 3% in the induction phase, at 1.5% during acute surgical procedures and at 0.8-1.0% during experimental observations. […]. […] A period of stabilisation of 30 min was observed and the following experimental protocols were then performed and arterial blood pressure was evaluated. During isoflurane inhalation, no breathing complications or changes in blood pressure were observed. […].
In a preliminary study, individual rats received a single i.v. injection of hUII ranging from 1 to 30 nmol/kg. A dose-response curve, reflecting the effect of hUII on the change in blood pressure, was then determined.
In this set of experiments, five groups of rats were used. […] […]. Hemodynamic changes were continuously captured by the pressure probe over a period of 1 h. The maximum rise and the maximum drop in blood pressure was determined and analyzed using the PowerLab software (ADInstruments, Colorado Springs, Colo., USA).
In the control group, the rats received two doses of hUII (10 nmol/kg) with a 30 min interval between the first and second injection.

[2] = target: T1, human urotensin II receptor (UT) (Homo sapiens, UniProt Q9UKP6); test: Competitive radioligand binding on CHO-UT cells
T1 construct: expressed in transfected cells; host or cells: CHO cells (CHO-UT), stably transfected, G418 selection
T1 sequence (Q9UKP6 1-389): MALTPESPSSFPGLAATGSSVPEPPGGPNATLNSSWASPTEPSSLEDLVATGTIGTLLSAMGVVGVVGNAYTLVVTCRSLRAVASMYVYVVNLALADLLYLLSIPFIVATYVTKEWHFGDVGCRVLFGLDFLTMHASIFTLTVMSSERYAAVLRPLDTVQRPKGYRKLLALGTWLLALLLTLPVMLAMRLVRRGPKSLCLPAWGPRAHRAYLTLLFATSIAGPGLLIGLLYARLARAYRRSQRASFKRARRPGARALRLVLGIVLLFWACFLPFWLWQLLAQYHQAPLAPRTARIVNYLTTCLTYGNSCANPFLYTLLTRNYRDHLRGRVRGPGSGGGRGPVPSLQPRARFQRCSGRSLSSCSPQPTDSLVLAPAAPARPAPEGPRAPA
Procedure: Transfected CHO cells expressing the human urotensin receptor (CHO-UT) were maintained in Ham-F12 medium with 10% fetal bovine serum (FBS), 2 mM L-glutamine, 100 UI/mL each of penicillin and streptomycin, and 400 μg/mL G418. […] Binding assays were following known literature procedures using CHO cells stably transfected with hGPR14. […] After 90 min of incubation at room temperature, cells were washed, lysed, and the cell-bound radioactivity was quantified using a γ-counter. […] The cells were then washed, lysed, and the radioactivity counted on a γ-counter (1470 Automatic Gamma Counter, Perkin Elmer). Binding and functional experiments were performed at least in triplicate and data, expressed as mean±S.E.M, were analyzed using the Prism software (Graph Pad Software, San Diego, Calif.). In all experiments, n represents the total number of animals studied or individual assays performed. The EC50, pEC50, pIC50 values as well as the Emax value were determined from the concentration-response curves using a sigmoidal dose-response fit with variable slope. […] The slope is calculated from the double reciprocal plot of equiactive concentrations of agonist in the presence and absence of antagonist.

rat thoracic aorta rings [3] = assay type: cell-based; settings: for Aortic Ring contraction pEC50: endothelium-denuded rat thoracic aorta; for Aortic Ring contraction Emax (%): percentage of contraction induced by KCl (40 mM)
Procedure: Binding and functional experiments were performed at least in triplicate and data, expressed as mean±S.E.M, were analyzed using the Prism software (Graph Pad Software, San Diego, Calif.). In all experiments, n represents the total number of animals studied or individual assays performed. The EC50, pEC50, pIC50 values as well as the Emax value were determined from the concentration-response curves using a sigmoidal dose-response fit with variable slope. […] The slope is calculated from the double reciprocal plot of equiactive concentrations of agonist in the presence and absence of antagonist.

rat thoracic aorta rings [4] = test: Antagonism of UII- or URP-induced contraction of rat aortic ring; assay type: cell-based; settings: pretreatment 10^−6M, 15 min
Procedure: as §1, with “derivative. […] Binding and functional experiments were performed at least in triplicate and data, expressed as mean±S.E.M, were analyzed using the Prism software (Graph Pad Software, San Diego, Calif.). In all experiments, n represents the total number of animals studied or individual assays performed. The EC50, pEC50, pIC50 values as well as the Emax value were determined from the concentration-response curves using a sigmoidal dose-response fit with variable slope. Non-competitive antagonist affinities (pKb) were determined using the method of Gaddum where equiactive concentrations of agonist, in the absence or presence of URP derivative, were compared in a linear regression. The resulting slope was used to calculate the equilibrium constant Kb using the following equation: Kb=[B]/(slope−1); where [B] is the antagonist concentration. The slope is calculated from the double reciprocal plot of equiactive concentrations of agonist in the presence and absence of antagonist.” for “derivative.”

Molecule	Binding affinity for UT (in words) [2]	EC50 (rat thoracic aorta rings [3]) [nM]	Aortic Ring contraction pEC50 (rat thoracic aorta rings [3])	Aortic Ring contraction Emax (%) (rat thoracic aorta rings [3])	Agonist behaviour in aortic ring contraction (in words) (rat thoracic aorta rings [3])	further results
endothelin-1 [ET-1, reference compound]	–	–	–	–	–	ET-1 Emax (rat thoracic aorta rings [1]): 119±6; ET-1 pEC50 (rat thoracic aorta rings [1]): 8.06±0.15
CC(C)[C@H](NC(=O)[C@@H]1CSSC[C@H](NC(=O)[C@H](C)N)C(=O)N[C@@H](Cc2ccccc2)C(=O)N[C@@H](Cc2c[nH]c3ccccc23)C(=O)N[C@@H](CCCCN)C(=O)N[C@@H](Cc2ccc(O)cc2)C(=O)N1)C(=O)O [Compound 2, reference compound]	high affinity	7	8.09±0.18	100±6	–	Hemodynamic response to bolus i.v. injection (anaesthetized rats; 0.01 μmol/kg i.v.): biphasic hemodynamic response; Time of hypotension nadir (anaesthetized rats; 0.01 μmol/kg i.v.): ~6 min; Time of pressor phase peak (anaesthetized rats; 0.01 μmol/kg i.v.): ~1 min; Response to repeated injections (anaesthetized rats; 10 nmol/kg twice, 30 min interval): equivalent biphasic responses; Effect of prior URP injection on hUII hemodynamic response (anaesthetized rats; hUII 30 min after URP bolus, 10 nmol/kg): such observation was not made; IC50 ([2]; Binding (125I-URP) IC50 (nM), radioligand 125I-URP, recombinant human UT): 31.8 nM; IC50 ([2]; Binding (125I-hUII) IC50 (nM), radioligand 125I-hUII, recombinant human UT): 12.4 nM; Binding (125I-hUII) pIC50 ([2]; radioligand 125I-hUII, recombinant human UT): 7.90 ± 0.11
CC(C)[C@H](NC(=O)[C@@H]1CSSC[C@H](NC(=O)[C@H](C)N)C(=O)N[C@@H](Cc2ccccc2)C(=O)N2CCc3ccccc3[C@H]2C(=O)N[C@@H](CCCCN)C(=O)N[C@@H](Cc2ccc(O)cc2)C(=O)N1)C(=O)O [Compound 16, H-Ala-Cys-Phe-Tiq-Lys-Tyr-Cys-Val-OH]	high binding affinity	22	7.66 ± 0.11	126 ± 5	contractile efficacy and potency comparable to the endogenous peptides	–
CC(NC(=O)C(NC(=O)CNC(=O)C(Cc1c[nH]cn1)NC(=O)C1CCC(=O)N1)C(C)O)C(=O)N1CCCC1C(=O)NC(CCC(=O)O)C(N)=O (stereo not drawn) [rUII(1-7), Pyr-His-Gly-Thr-Ala-Pro-Glu-NH2] ([pGlu]HGTAPE-NH2; configuration not given here)	–	–	–	–	unable to induce the contraction of rat aortic rings	Effect on URP-associated contraction curve (in words) (rat thoracic aorta rings [4]): significant rightward shift; Effect on rUII-induced contraction (in words) (rat thoracic aorta rings [4]): did not significantly alter
CC(C)[C@H](NC(=O)[C@@H]1CSSC[C@H](NC(=O)[C@H](C)N)C(=O)N[C@@H](Cc2ccccc2)C(=O)N2Cc3[nH]c4ccccc4c3C[C@H]2C(=O)N[C@@H](CCCCN)C(=O)N[C@@H](Cc2ccc(O)cc2)C(=O)N1)C(=O)O [Compound 10, H-Ala-Cys-Phe-Tpi-Lys-Tyr-Cys-Val-OH]	high affinity for UT	–	–	139 ± 17	vasoconstriction comparable to hUII or URP with however a slightly reduced potency	–
CC(C)[C@H](NC(=O)[C@@H]1CSSC[C@H](NC(=O)[C@H](C)N)C(=O)N[C@@H](Cc2ccccc2)C(=O)N[C@@H](CC2CCCCC2)C(=O)N[C@@H](CCCCN)C(=O)N[C@@H](Cc2ccc(O)cc2)C(=O)N1)C(=O)O [Compound 6, H-Ala-Cys-Phe-Cha-Lys-Tyr-Cys-Val-OH]	–	> 1000	<6	–	full but weak agonist	Reduction in binding affinity compared to compound 5 ([2]; versus compound 5): 3 fold; Aortic Ring contraction Emax (%), maximum efficacy at 10^−5.5M (rat thoracic aorta rings [3]; percentage of KCl (40 mM) contraction, at 10^−5.5M): 77^d %
